Where “and” joins values, the source holds several entries; their conditions need not be identical. Identical values can stand only once. Like-named read-outs stand apart in the source and are kept apart here.
Legend:
[1] = target: T1, VCB: PROTAC: SMARCA2^BD ternary complex (Homo sapiens, UniProt P51531); assay: TR-FRET ternary complex affinity and cooperativity, SMARCA2; format: binding
T1 construct: P51531-2, residues 1373-1493 with additional N-terminal SM residues; GST (TEV site) (N); His6 (TEV site) (N, cleaved yes); made in house; host or cells: SMARCA2^BD: Escherichia coli BL21(DE3)

[2] = target: T2, PBRM1BD5 (Homo sapiens, UniProt Q86U86); assay: TR-FRET ternary complex affinity and cooperativity, PBRM1; format: binding; conditions: TR-FRET competition for PBRM1BD5, without VCB; mean ± SD; read-out: TR-FRET PBRM1BD EC50
T2 construct: GST (TEV site) (N); His6 (TEV site) (N, cleaved yes); made in house; host or cells: PBRM1^BD5: Escherichia coli BL21(DE3)

[3] = target: T3, PBRM1 BD (Homo sapiens, UniProt Q86U86); assay: TR-FRET binary and ternary (PROTAC + VCB) affinity, PBRM1 bromodomain; format: binding; conditions: individual replicates
T3 construct: GST (TEV site) (N); made in house; host or cells: Escherichia coli BL21(DE3)

[4] = target: VCB: PROTAC: SMARCA2^BD ternary complex (Homo sapiens, UniProt P40337+P51531); assay: TR-FRET ternary complex affinity and cooperativity, SMARCA2; format: binding; design: P51531-2, residues 1373-1493 with additional N-terminal SM residues; GST (TEV site) (N); His6 (TEV site) (N, cleaved yes); made in house; host or cells: SMARCA2^BD: Escherichia coli BL21(DE3)
[5] = target: VCB: PROTAC: SMARCA4^BD ternary complex (Homo sapiens, UniProt P40337+P51532); assay: TR-FRET ternary complex affinity and cooperativity, SMARCA4; format: binding; design: P51532, residues 1448–1569 with additional N-terminal SM residues; GST (TEV site) (N); His6 (TEV site) (N, cleaved yes); made in house; host or cells: SMARCA4^BD: Escherichia coli BL21(DE3)
[6] = tested on: NCI-H1568 cells; assay: Cell viability assay (CellTiter Glo) in NCI-H1568; format: cell-based, human; conditions: for EC50: read-out: EC50 cell proliferation (CellTiter Glo); for IC50: NCI-H1568, (18h), CellTiter Glo, individual replicates, read-out: NCI-H1568 (18h) CTG
Experimental: 500–2000 cells were seeded in white, clear bottom 96-well plates (Corning or Perkin Elmer) in 180–200 µl medium per well. The next day, compounds were added using a digital dispenser and a T0 sample was measured for reference. […], and viability (luminescence) was measured using CellTiter Glo or CellTiter Glo 2.0 (Promega) according to manufacturer’s instructions after equilibrating cells and reagents at room temperature and 10–20 min incubation time while shaking.

[7] = TR-FRET competition for SMARCA2BD, without VCB, mean ± SD, read-out: TR-FRET SMARCA2BD EC50
[8] = binary, PROTAC alone, individual replicates, read-out: SMARCA2 BD EC50
[9] = PROTAC + VCB, read-out: Ternary PBRM1 BD EC50 (PROTAC + VCB)
[10] = binary, PROTAC alone, read-out: PBRM1 EC50
[11] = PROTAC + VCB, individual replicates, read-out: Ternary SMARCA2 BD EC50 (PROTAC + VCB)
[12] = TR-FRET competition for SMARCA2BD, + VCB, mean ± SD, read-out: TR-FRET Ternary SMARCA2BD EC50 (PROTAC + VCB)
[13] = PROTAC + VCB, individual replicates, read-out: Ternary SMARCA4 BD EC50 (PROTAC + VCB)
[14] = TR-FRET competition for SMARCA4BD, + VCB, mean ± SD, read-out: TR-FRET Ternary SMARCA4BD EC50 (PROTAC + VCB)

VCB: PROTAC: SMARCA4^BD ternary complex, sequence (P51532 1448-1569): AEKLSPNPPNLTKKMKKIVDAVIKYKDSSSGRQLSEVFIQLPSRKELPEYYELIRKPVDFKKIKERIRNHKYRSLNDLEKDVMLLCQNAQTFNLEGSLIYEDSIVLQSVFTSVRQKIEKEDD
VCB: PROTAC: SMARCA4^BD ternary complex, sequence (P40337 54-213): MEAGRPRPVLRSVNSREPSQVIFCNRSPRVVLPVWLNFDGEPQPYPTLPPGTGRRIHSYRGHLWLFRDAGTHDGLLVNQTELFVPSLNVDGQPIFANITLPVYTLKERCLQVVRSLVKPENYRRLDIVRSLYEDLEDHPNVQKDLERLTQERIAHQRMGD
VCB: PROTAC: SMARCA4^BD ternary complex, sequence (Q15369 17-112 partner): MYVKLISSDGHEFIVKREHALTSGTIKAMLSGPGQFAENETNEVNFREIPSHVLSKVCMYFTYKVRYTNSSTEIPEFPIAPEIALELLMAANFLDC
VCB: PROTAC: SMARCA4^BD ternary complex, sequence (Q15370 1-104 partner): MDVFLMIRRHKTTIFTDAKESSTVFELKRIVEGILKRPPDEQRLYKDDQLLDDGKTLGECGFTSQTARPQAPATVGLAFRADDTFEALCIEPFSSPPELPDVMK
T1 sequence (P51531 with tags, fused parts or gaps isoform P51531-2): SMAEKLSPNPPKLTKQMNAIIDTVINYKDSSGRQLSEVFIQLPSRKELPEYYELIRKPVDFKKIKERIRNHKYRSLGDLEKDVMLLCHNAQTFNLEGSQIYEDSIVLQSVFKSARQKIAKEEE
VCB: PROTAC: SMARCA2^BD ternary complex (Homo sapiens, UniProt P40337+P51531), sequence (P51531 with tags, fused parts or gaps isoform P51531-2): as above
VCB: PROTAC: SMARCA2^BD ternary complex (Homo sapiens, UniProt P40337+P51531), sequence (P40337 54-213): as the sequence (P40337 54-213) above
VCB: PROTAC: SMARCA2^BD ternary complex (Homo sapiens, UniProt P40337+P51531), sequence (Q15369 17-112 partner): as the sequence (Q15369 17-112 partner) above
VCB: PROTAC: SMARCA2^BD ternary complex (Homo sapiens, UniProt P40337+P51531), sequence (Q15370 1-104 partner): as the sequence (Q15370 1-104 partner) above
T2 sequence (Q86U86 645-766): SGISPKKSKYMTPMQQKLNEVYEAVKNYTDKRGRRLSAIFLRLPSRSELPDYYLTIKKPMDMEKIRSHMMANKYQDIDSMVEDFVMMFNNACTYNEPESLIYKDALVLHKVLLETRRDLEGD

Row | SMILES | EC50 [1, 7] | EC50 [1, 8] | EC50 [2] | EC50 [3, 9] | EC50 [3, 10] | EC50 [4, 11] | EC50 [4, 12] | EC50 [5, 13] | EC50 [5, 14] | EC50 ([6]; Homo sapiens, NCI-H1568, […]) | EC50 ([6]; NCI-H1568 ([…]), mean ± SD) | IC50 [6]
1 | O=c1nc2n(C3CCCC3)c3ccccc3n2c2cccc(Br)c12 [compound 1] | 425 ± 11 nM | 413 nM and 429 nM and 435 nM | 134 ± 28 nM | 129 nM and 124 nM and 140 nM | 124 nM and 116 nM and 167 nM | 381 nM and 365 nM and 425 nM | 389 ± 31 nM | 824 nM and 894 nM and 817 nM | 844 ± 42 nM | 1100 nM |  | 
2 | Cc1ncsc1-c1ccc([C@H](COC(C)(C)CN2CCC(c3ccc4c(c3)n(C3CCCC3)c3nc(=O)c5c(Br)cccc5n43)CC2)NC(=O)[C@@H]2C[C@@H](O)CN2C(=O)[C@@H](NC(=O)C2(F)CC2)C(C)(C)C)cc1 [compound 28] | 130 ± 18 nM | 132 nM and 140 nM and 145 nM and 139 nM and 134 nM and 133 nM and 154 nM and 106 nM and 96.3 nM and 137 nM | 24 ± 11 nM | 5.74 nM and 5.13 nM and 5.34 nM and 1.07 nM | 37.2 nM and 28.8 nM and 29.6 nM and 10.8 nM | 34 nM and 37.9 nM and 38.6 nM and 39.5 nM and 28.8 nM and 36.1 nM and 40.6 nM and 27.9 nM and 35.6 nM and 32 nM | 35 ± 4 nM | 99.7 nM and 76.7 nM and 88 nM and 49.7 nM | 76 ± 21 nM |  | 16 ± 5 nM | 16.7 nM and 21.6 nM and 18.3 nM and 17.1 nM and 20.5 nM and 6.45 nM
3 | CN1CCN(c2nc(=O)c3c(F)cccc3o2)CC1 [compound 17] |  | > 10000 nM | > 10000 nM | > 10000 nM | > 10000 nM | > 10000 nM |  | > 10000 nM |  |  | > 10000 nM | > 10000 nM
4 | Cc1ncsc1-c1ccc([C@H](COCCCN2CCC(c3ccc4c(c3)n(C3CCCC3)c3nc(=O)c5c(Br)cccc5n43)CC2)NC(=O)[C@@H]2C[C@@H](O)CN2C(=O)[C@@H](NC(=O)C2(F)CC2)C(C)(C)C)cc1 [compound 27] | 91 ± 11 nM | 98.5 nM and 107 nM and 101 nM (2×) and 91.6 nM and 79.8 nM and 86.9 nM and 77.2 nM and 83.6 nM | 33 ± 7 nM | 2.18 nM and 2.66 nM and 2.87 nM and 2.65 nM and 2.69 nM and 3.64 nM and 3.28 nM | 32.7 nM and 35.1 nM and 34.6 nM and 30.3 nM and 34.2 nM and 22.8 nM and 45.7 nM | 29.5 nM and 30.9 nM and 30.6 nM and 24.4 nM and 46.9 nM and 21.2 nM and 34.9 nM and 23.9 nM | 29 ± 8 nM | 63.8 nM and 63.4 nM and 53.1 nM and 76.7 nM and 81.7 nM and 82 nM | 69 ± 12 nM |  | 13 ± 1 nM | 14.2 nM and 12 nM and 13.3 nM
5 | CN1CCN(c2nc(=O)c3c(Br)cccc3o2)CC1 [compound 15] |  | > 10000 nM | > 10000 nM | > 10000 nM | > 10000 nM | > 10000 nM |  | > 10000 nM |  |  | > 10000 nM | > 10000 nM
6 | Cc1ncsc1-c1ccc(CNC(=O)[C@@H]2C[C@@H](O)CN2C(=O)[C@@H](NC(=O)C2(F)CC2)C(C)(C)C)c(OCCN2CCC(c3ccc4c(c3)n(C3CCCC3)c3nc(=O)c5c(Br)cccc5n43)CC2)c1 [compound 20] | 78 ± 20 nM | 95.1 nM and 98.5 nM and 63.7 nM and 90.1 nM and 54.6 nM | 38 ± 4 nM | 30.2 nM and 37.8 nM and 37.5 nM | 35.1 nM and 43.6 nM and 36.5 nM and 35.9 nM | 140 nM and 137 nM and 122 nM and 109 nM and 217 nM | 141 ± 42 nM | 312 nM and 310 nM and 294 nM and 321 nM | 309 ± 11 nM |  | 74 ± 52 nM | 80.9 nM and 35.3 nM and 140 nM
7 | Cc1ncsc1-c1ccc([C@H](CCC(C)(C)CCN2CCC(c3ccc4c(c3)n(C3CCCC3)c3nc(=O)c5c(Br)cccc5n43)CC2)NC(=O)[C@@H]2C[C@@H](O)CN2C(=O)[C@@H](NC(=O)C2(F)CC2)C(C)(C)C)cc1 [compound 30] | 260 ± 100 nM | 213 nM and 176 nM and > 400 nM and 400 nM and 304 nM | 131 ± 49 nM | 4.23 nM and 6.19 nM and 8.06 nM | 111 nM and 105 nM and 192 nM | 45.6 nM and 53.2 nM and 68.1 nM and 44.6 nM and 46.9 nM | 51 ± 10 nM | 88.3 nM and 118 nM and 113 nM | 106 ± 16 nM |  | 12 ± 6 nM | 19.7 nM and 17.5 nM and 8.43 nM and 7.53 nM
8 | Cc1ncsc1-c1ccc([C@H](CCCCCN2CCC(c3ccc4c(c3)n(C3CCCC3)c3nc(=O)c5c(Br)cccc5n43)CC2)NC(=O)[C@@H]2C[C@@H](O)CN2C(=O)[C@@H](NC(=O)C2(F)CC2)C(C)(C)C)cc1 [compound 11] | 123 ± 45 nM | 183 nM and 73.1 nM and 107 nM and > 400 nM and 65.7 nM and 113 nM and 145 nM and 121 nM and 105 nM and 125 nM and 146 nM and 228 nM and 144 nM | 41 ± 8 nM | 3.17 nM and 4.26 nM and 3.96 nM | 43.1 nM and 50 nM and 41.1 nM and 31.5 nM | 26.6 nM and 19.7 nM and 14.3 nM and 29.6 nM and 31.9 nM and 31.5 nM and 26.3 nM and 35.9 nM and 20.9 nM and 21.5 nM and 24.4 nM | 25 ± 6 nM | 65.3 nM and 77.7 nM and 60.4 nM | 67 ± 9 nM | 7 ± 3 nM |  | 8.72 nM and 10.4 nM and 5.64 nM and 9.09 nM and 2.95 nM and 6.31 nM
9 | CN1CCN(c2nc(=O)c3c(I)cccc3o2)CC1 [compound 16] |  | > 10000 nM | > 10000 nM | > 10000 nM | > 10000 nM | > 10000 nM |  | > 10000 nM |  |  | > 10000 nM | > 10000 nM
10 | Cc1ncsc1-c1ccc(CNC(=O)[C@@H]2C[C@@H](O)CN2C(=O)[C@@H](NC(=O)C2(F)CC2)C(C)(C)C)c(OCCOCCOCCN2CCC(c3ccc4c(c3)n(C3CCCC3)c3nc(=O)c5c(Br)cccc5n43)CC2)c1 [compound 21] | 255 ± 9 nM | 246 nM and 264 nM and 255 nM | 76 ± 4 nM | 33.9 nM and 37.8 nM and 41.4 nM | 71.9 nM and 80.2 nM and 77.4 nM | 138 nM and 122 nM and 143 nM | 134 ± 11 nM | 119 nM and 144 nM and 128 nM | 130 ± 13 nM |  | 223 ± 30 nM | 257 nM and 199 nM and 216 nM
